We go through three molecules from paper PMC8131206 (Nature biomedical engineering, 2021).

Where no end group is shown, it is not given here. Where only a bound is given, the exact number is not on record here.

One data set concerns Mtb. Type of data set: cell-based, Mycobacterium tuberculosis.
The next data set has as its system S. aureus (MS) NRS72. The note with it: MS) NRS72, 24 h.
The subject of a further data set is H. influenzae TD-4. The note with it: TD-4, 24 h.
The test system of data set [1] is M. tuberculosis H37Rv (virulent). The note with it: 96 h.
For a further data set, the system named is S. aureus (MR) USA300. Particulars: USA300, 24 h.
For a further data set, the system named is M. smegmatis Mc^2 155. The note with it: Mc^2 155, 48 h.
Data set [2] deals with the molecule itself. As to the kind of experiment: negative-stain TEM + circular dichroism. A general note: Circular dichroism is widely used to follow secondary structure.

`COc1c(N2C[C@@H]3CCCN[C@@H]3C2)c(F)cc2c(=O)c(C(=O)O)cn(C3CC3)c12` [moxifloxacin]: in the data set with Mtb, the “Combinatorial effect with MAD1 (FIC)” value is given as “synergizes”.
On to KRWHWWRRHWVVW-NH2 [MAD1], for which the MIC with S. aureus (MS) NRS72 is >80 (20) µM; with H. influenzae TD-4, 80 (20) µM; in data set [1] it was 5 µM; against S. aureus (MR) USA300, >80 (20) µM; against M. smegmatis Mc^2 155 it was 5(5) µM.
KRWHWWRRHWVVW-NH2 [myco-membrane associated disruption 1 (MAD1) peptide]: the binding result in data set [2] is “binds”.
